What was measured:
Format in all cases: functional
SK-MEL-2 = assay: Cytotoxicity against human SK-MEL-2 cells assessed as cell growth at 10^-8 M after 48 hrs by SRB assay; settings: SK-MEL-2, 48 h, read-out: Activity
K562 [1] = assay: Cytotoxicity against human K562 cells assessed as cell growth at 10^-8 M after 48 hrs by SRB assay; settings: K562, 48 h, read-out: Activity
CCRF-CEM = assay: Cytotoxicity against human CCRF-CEM cells assessed as cell growth at 10^-7 M after 48 hrs by SRB assay; settings: read-out: Activity
M14 [2] = assay: Cytotoxicity against human M14 cells assessed as cell growth at 10^-8 M after 48 hrs by SRB assay; settings: M14, 48 h, read-out: Activity
SF-295 = assay: Cytotoxicity against human SF295 cells after 48 hrs by SRB assay; settings: SF-295, 48 h
PC-3 = assay: Cytotoxicity against human PC3 cells assessed as cell growth at 10^-4 M after 48 hrs by SRB assay; settings: PC-3, 48 h, read-out: Activity
RPMI-8226 [3] = assay: Cytotoxicity against human RPMI8226 cells assessed as cell growth at 10^-8 M after 48 hrs by SRB assay; settings: RPMI-8226, 48 h, read-out: Activity
SF-268 [4] = assay: Cytotoxicity against human SF268 cells assessed as cell growth at 10^-8 M after 48 hrs by SRB assay; settings: SF-268, 48 h, read-out: Activity
RPMI-8226 [5] = assay: Cytotoxicity against human RPMI8226 cells assessed as cell growth at 10^-7 M after 48 hrs by SRB assay; settings: RPMI-8226, 48 h, read-out: Activity
HL-60(TB) = assay: Cytotoxicity against human HL-60(TB) cells assessed as cell growth at 10^-7 M after 48 hrs by SRB assay; settings: HL-60, 48 h, read-out: Activity
M14 [6] = assay: Cytotoxicity against human M14 cells assessed as cell growth at 10^-7 M after 48 hrs by SRB assay; settings: M14, 48 h, read-out: Activity
Malme-3M = assay: Cytotoxicity against human MALME-3M cells assessed as cell growth at 10^-8 M after 48 hrs by SRB assay; settings: read-out: Activity
MCF7 [7] = assay: Cytotoxicity against human MCF7 cells after 48 hrs by SRB assay; settings: MCF7, 48 h
SNB-19 [8] = assay: Cytotoxicity against human SNB19 cells after 48 hrs by SRB assay; settings: SNB-19, 48 h
HOP-92 [9] = assay: Cytotoxicity against human HOP92 cells assessed as cell growth at 10^-6 M after 48 hrs by SRB assay; settings: HOP-92, 48 h, read-out: Activity
SF-268 [10] = assay: Cytotoxicity against human SF268 cells assessed as cell growth at 10^-4 M after 48 hrs by SRB assay; settings: SF-268, 48 h, read-out: Activity
SK-MEL-5 = assay: Cytotoxicity against human SK-MEL-5 cells assessed as cell growth at 10^-6 M after 48 hrs by SRB assay; settings: SK-MEL-5, 48 h, read-out: Activity
[11] = Cytotoxicity against human OVCAR4 cells assessed as cell growth at 10^-4 M after 48 hrs by SRB assay; settings: OVCAR-4, 48 h, read-out: Activity
U-251 = assay: Cytotoxicity against human U251 cells assessed as cell growth at 10^-8 M after 48 hrs by SRB assay; settings: U-251, 48 h, read-out: Activity
SF-539 = assay: Cytotoxicity against human SF539 cells after 48 hrs by SRB assay; settings: SF-539, 48 h
SN12C = assay: Cytotoxicity against human SN12C cells assessed as cell growth at 10^-8 M after 48 hrs by SRB assay; settings: read-out: Activity
NCI-H460 = assay: Cytotoxicity against human NCI-H460 cells assessed as cell growth at 10^-8 M after 48 hrs by SRB assay; settings: NCI-H460, 48 h, read-out: Activity
HOP-92 [12] = assay: Cytotoxicity against human HOP92 cells assessed as cell growth at 10^-7 M after 48 hrs by SRB assay; settings: HOP-92, 48 h, read-out: Activity
BT-549 = assay: Cytotoxicity against human BT549 cells assessed as cell growth at 10^-6 M after 48 hrs by SRB assay; settings: BT-549, 48 h, read-out: Activity
K562 [13] = assay: Cytotoxicity against human K562 cells assessed as cell growth at 10^-6 M after 48 hrs by SRB assay; settings: K562, 48 h, read-out: Activity
ACHN = assay: Cytotoxicity against human ACHN cells assessed as cell growth at 10^-7 M after 48 hrs by SRB assay; settings: read-out: Activity
HCC 2998 = assay: Cytotoxicity against human HCC2998 cells after 48 hrs by SRB assay; settings: HCC 2998, 48 h
CAKI-1 = assay: Cytotoxicity against human Caki1 cells assessed as cell growth at 10^-7 M after 48 hrs by SRB assay; settings: CAKI-1, 48 h, read-out: Activity
HOP-62 [14] = assay: Cytotoxicity against human HOP62 cells assessed as cell growth at 10^-7 M after 48 hrs by SRB assay; settings: HOP-62, 48 h, read-out: Activity
MCF7 [15] = assay: Cytotoxicity against human MCF7 cells assessed as cell growth at 10^-4 M after 48 hrs by SRB assay; settings: MCF7, 48 h, read-out: Activity
COLO 205 = assay: Cytotoxicity against human COLO205 cells after 48 hrs by SRB assay; settings: COLO 205, 48 h
HCT-15 = assay: Cytotoxicity against human HCT15 cells after 48 hrs by SRB assay; settings: HCT-15, 48 h
DU-145 = assay: Cytotoxicity against human DU145 cells assessed as cell growth at 10^-4 M after 48 hrs by SRB assay; settings: DU-145, 48 h, read-out: Activity
NCI-H322M = assay: Cytotoxicity against human NCI-H322M cells assessed as cell growth at 10^-6 M after 48 hrs by SRB assay; settings: read-out: Activity
SNB-19 [16] = assay: Cytotoxicity against human SNB19 cells assessed as cell growth at 10^-8 M after 48 hrs by SRB assay; settings: SNB-19, 48 h, read-out: Activity
HOP-62 [17] = assay: Cytotoxicity against human HOP62 cells after 48 hrs by SRB assay; settings: HOP-62, 48 h
RXF 393 = assay: Cytotoxicity against human RXF393 cells assessed as cell growth at 10^-7 M after 48 hrs by SRB assay; settings: RXF 393, 48 h, read-out: Activity
786-0 = assay: Cytotoxicity against human 786-0 cells after 48 hrs by SRB assay; settings: 786-0, 48 h
NCI-H23 = assay: Cytotoxicity against human NCI-H23 cells assessed as cell growth at 10^-7 M after 48 hrs by SRB assay; settings: NCI-H23, 48 h, read-out: Activity

C=CCn1c(C)nc2ccc(Nc3nc(Nc4ccc5nc(C)n(CC=C)c5c4)c4ccccc4n3)cc21
growth at 0.01 µM (SK-MEL-2): 96%
growth at 0.01 µM (K562 [1]): 96%
growth at 0.1 µM (CCRF-CEM): 96%
growth at 0.01 µM (M14 [2]): 96%
GI50 (SF-295): 1.84 µM
TGI (SF-295): 3.53 µM
growth at 100 µM (PC-3): -46%
growth at 0.01 µM (RPMI-8226 [3]): 99%
growth at 0.01 µM (SF-268 [4]): 90%
growth at 0.1 µM (RPMI-8226 [5]): 99%
growth at 0.1 µM (HL-60(TB)): 94%
growth at 0.1 µM (M14 [6]): 94%
growth at 0.01 µM (Malme-3M): 91%
GI50 (MCF7 [7]): 1.54 µM
TGI (MCF7 [7]): 2.88 µM
GI50 (SNB-19 [8]): 1.69 µM
TGI (SNB-19 [8]): 3.56 µM
growth at 1 µM (HOP-92 [9]): 70%
growth at 100 µM (SF-268 [10]): -33%
growth at 1 µM (SK-MEL-5): 91%
growth at 100 µM [11]: -43%
growth at 0.01 µM (U-251): 96%
GI50 (SF-539): 1.71 µM
LC50 (concentration giving 50% net cell kill) (SF-539): 5.71 µM
TGI (SF-539): 3.12 µM
growth at 0.01 µM (SN12C): 96%
growth at 0.01 µM (NCI-H460): 102%
growth at 0.1 µM (HOP-92 [12]): 86%
growth at 1 µM (BT-549): 86%
growth at 1 µM (K562 [13]): 68%
growth at 0.1 µM (ACHN): 92%
GI50 (HCC 2998): 1.72 µM
LC50 (50% lethal concentration) (HCC 2998): 5.56 µM
TGI (HCC 2998): 3.09 µM
growth at 0.1 µM (CAKI-1): 90%
growth at 0.1 µM (HOP-62 [14]): 96%
growth at 100 µM (MCF7 [15]): -22%
GI50 (COLO 205): 1.43 µM
TGI (COLO 205): 2.74 µM
GI50 (HCT-15): 1.77 µM
TGI (HCT-15): 3.55 µM
growth at 100 µM (DU-145): -75%
growth at 1 µM (NCI-H322M): 92%
growth at 0.01 µM (SNB-19 [16]): 92%
GI50 (HOP-62 [17]): 1.63 µM
TGI (HOP-62 [17]): 2.98 µM
growth at 0.1 µM (RXF 393): 96%
GI50 (786-0): 1.73 µM
TGI (786-0): 3.36 µM
growth at 0.1 µM (NCI-H23): 91%
